# pIC50: −log10 of the molar value.
# Biological target: LSD-1 enzyme (Homo sapiens (Human), UniProt O60341)
# Assay: LANCE LSD1/KDM1A demethylase assay (LSD1 histone demethylase biochemical assay)
# Settings: 1 nM LSD-1 enzyme, 1 hour preincubation at 25° C., Biotin-labeled Histone H3 peptide substrate
row,SMILES,pIC50
1,"COc1ncc(-c2c(-c3ccc(C#N)cc3)nc(OC[C@@H]3CCCN(C)C3)n3ccnc23)cc1Cl [Example 88, 4-(8-(5-chloro-6-methoxypyridin-3-yl)-5-{[(3R)-1-methylpiperidin-3-yl]methoxy}imidazo[1,2-c]pyrimidin-7-yl)benzonitrile]",≥ 7.30
2,"CN1C(=O)CCc2cc(-c3c(-c4ccc(C#N)cc4)nc(N4CCC(N(C)C)CC4)n4ccnc34)ccc21 [Example 130, 4-[5-[4-(dimethylamino)piperidin-1-yl]-8-(1-methyl-2-oxo-1,2,3,4-tetrahydroquinolin-6-yl)imidazo[1,2-c]pyrimidin-7-yl]benzonitrile]",≥ 7.30
3,"CN1C(=O)CCc2ccc(-c3c(-c4ccc(C#N)cc4)nc(N4CCC(N(C)C)CC4)n4ccnc34)cc21 [Example 131, 4-[5-[4-(dimethylamino)piperidin-1-yl]-8-(1-methyl-2-oxo-1,2,3,4-tetrahydroquinolin-7-yl)imidazo[1,2-c]pyrimidin-7-yl]benzonitrile]",6.30 to 7.30
4,"COc1ncc(-c2c(-c3ccc(C#N)cc3)nc(OC[C@@H]3CCCN(CCO)C3)n3ccnc23)cc1F [Example 57, 4-(8-(5-fluoro-6-methoxypyridin-3-yl)-5-{[(3R)-1-(2-hydroxyethyl)piperidin-3-yl]methoxy}imidazo[1,2-c]pyrimidin-7-yl)benzonitrile]",≥ 7.30
5,"Cc1ccc(-c2c(-c3ccc(C#N)cc3)nc(OC[C@@H]3CCCN(C)C3)n3ccnc23)cc1CO [Example 71, 4-(8-[3-(hydroxymethyl)-4-methylphenyl]-5-{[(3R)-1-methylpiperidin-3-yl]methoxy}imidazo[1,2-c]pyrimidin-7-yl)benzonitrile]",≥ 7.30
6,"CN1CC[C@@H](COc2nc(-c3ccc(C#N)cc3)c(-c3ccc4c(c3)CC(=O)N4C)c3nccn23)C1 [Example 23, 4-(8-(1-methyl-2-oxo-2,3-dihydro-1H-indol-5-yl)-5-{[(3R)-1-methylpyrrolidin-3-yl]methoxy}imidazo[1,2-c]pyrimidin-7-yl)benzonitrile]",6.30 to 7.30
7,"Cc1nc2cc(-c3c(-c4ccc(C#N)cc4)nc(N4CCC(N(C)C)CC4)n4ccnc34)ccc2n1C [Example 63, 4-[5-[4-(dimethylamino)piperidin-1-yl]-8-(1,2-dimethyl-1H-benzimidazol-5-yl)imidazo[1,2-c]pyrimidin-7-yl]benzonitrile]",≥ 7.30
8,"CN(C)C1CCN(c2nc(-c3ccc(C#N)cc3)c(-c3cc4c(cc3F)n(C)c(=O)n4C)c3nccn23)CC1 [Example 129, 4-[5-[4-(dimethylamino)piperidin-1-yl]-8-(6-fluoro-1,3-dimethyl-2-oxo-2,3-dihydro-1H-benzimidazol-5-yl)imidazo[1,2-c]pyrimidin-7-yl]benzonitrile]",≥ 7.30
9,"COCCN1CCC[C@@H](COc2nc(-c3ccc(C#N)cc3)c(-c3cnc4c(cnn4C)c3)c3nccn23)C1 [Example 41, 4-[5-{[(3R)-1-(2-methoxyethyl)piperidin-3-yl]methoxy}-8-(1-methyl-1H-pyrazolo[3,4-b]pyridin-5-yl)imidazo[1,2-c]pyrimidin-7-yl]benzonitrile]",≥ 7.30
10,"CN1CCC[C@@H](COc2nc(-c3ccc(C#N)cc3)c(-c3cc4oc(=O)n(C)c4cc3F)c3nccn23)C1 [Example 45, 4-(8-(5-fluoro-3-methyl-2-oxo-2,3-dihydro-1,3-benzoxazol-6-yl)-5-{[(3R)-1-methylpiperidin-3-yl]methoxy}imidazo[1,2-c]pyrimidin-7-yl)benzonitrile]",≥ 7.30
11,"CC(C)c1ccc(-c2c(-c3ccc(C#N)cc3)nc(OC[C@@H]3CCCN(C)C3)n3ccnc23)cn1 [Example 108, 4-(8-(6-isopropylpyridin-3-yl)-5-{[(3R)-1-methylpiperidin-3-yl]methoxy}imidazo[1,2-c]pyrimidin-7-yl)benzonitrile]",6.30 to 7.30
12,"CCN1CCC[C@@H](COc2nc(-c3ccc(C#N)cc3)c(-c3cc(C)c(CO)c(F)c3)c3nccn23)C1 [Example 109, 4-{5-{[(3R)-1-ethylpiperidin-3-yl]methoxy}-8-[3-fluoro-4-(hydroxymethyl)-5-methylphenyl]imidazo[1,2-c]pyrimidin-7-yl}benzonitrile]",≥ 7.30
13,"CN1CCC2(CCN(c3nc(-c4ccc(C#N)cc4)c(-c4cnc5c(cnn5C)c4)c4nccn34)C2)C1 (stereo not drawn) [Example 39, 4-[5-(7-methyl-2,7-diazaspiro[4.4]non-2-yl)-8-(1-methyl-1H-pyrazolo[3,4-b]pyridin-5-yl)imidazo[1,2-c]pyrimidin-7-yl]benzonitrile]",≥ 7.30
14,"CN(C)C1CCN(c2nc(-c3ccc(C#N)cc3)c(-c3cnc4c(ccn4C)c3)c3nccn23)CC1 [Example 125, 4-[5-[4-(dimethylamino)piperidin-1-yl]-8-(1-methyl-1H-pyrrolo[2,3-b]pyridin-5-yl)imidazo[1,2-c]pyrimidin-7-yl]benzonitrile]",≥ 7.30
15,"Cc1cc(-c2c(-c3ccc(C#N)cc3)nc(N3CC[C@@H](N(C)C)C3)n3ccnc23)cc(F)c1CO [Example 110, 4-{5-[(3R)-3-(dimethylamino)pyrrolidin-1-yl]-8-[3-fluoro-4-(hydroxymethyl)-5-methylphenyl]imidazo[1,2-c]pyrimidin-7-yl}benzonitrile]",≥ 7.30
16,"COc1ncc(-c2c(-c3ccc(C#N)cc3)nc(N3CCC(N(C)C)CC3)n3ccnc23)cc1C#N [Example 105, 5-{7-(4-cyanophenyl)-5-[4-(dimethylamino)piperidin-1-yl]imidazo[1,2-c]pyrimidin-8-yl}-2-methoxynicotinonitrile]",≥ 7.30
17,"CN(C)C1CCN(c2nc(-c3ccc(C#N)cc3)c(-c3ccc4scnc4c3)c3nccn23)CC1 [Example 120, 4-{8-(1,3-benzothiazol-5-yl)-5-[4-(dimethylamino)piperidin-1-yl]imidazo[1,2-c]pyrimidin-7-yl}benzonitrile]",≥ 7.30
18,"CN1C(=O)COc2cc(-c3c(-c4ccc(C#N)cc4)nc(N4CCC(N(C)C)CC4)n4ccnc34)ccc21 [Example 51, 4-[5-[4-(dimethylamino)piperidin-1-yl]-8-(4-methyl-3-oxo-3,4-dihydro-2H-1,4-benzoxazin-7-yl)imidazo[1,2-c]pyrimidin-7-yl]benzonitrile]",≥ 7.30
19,"Cc1cc(-c2c(-c3ccc(C#N)cc3)nc(N3CCC(N(C)C)CC3)n3ccnc23)cnc1C [Example 68, 4-[5-[4-(dimethylamino)piperidin-1-yl]-8-(5,6-dimethylpyridin-3-yl)imidazo[1,2-c]pyrimidin-7-yl]benzonitrile]",≥ 7.30
20,"CN1CCC[C@@H](COc2nc(-c3ccc(C#N)cc3)c(-c3ccc(CN4CCOCC4)c(F)c3)c3nccn23)C1 [Example 80, 4-(8-[3-fluoro-4-(morpholin-4-ylmethyl)phenyl]-5-{[(3R)-1-methylpiperidin-3-yl]methoxy}imidazo[1,2-c]pyrimidin-7-yl)benzonitrile]",≥ 7.30
21,"Cc1ncc(-c2c(-c3ccc(C#N)cc3)nc(N3CCC(N(C)C)CC3)n3ccnc23)cc1Cl [Example 103, 4-{8-(5-chloro-6-methylpyridin-3-yl)-5-[4-(dimethylamino)piperidin-1-yl]imidazo[1,2-c]pyrimidin-7-yl}benzonitrile]",≥ 7.30
22,"CN1CCC[C@@H](COc2nc(-c3ccc(C#N)cc3)c(-c3ccc(CO)c(F)c3)c3nccn23)C1 [Example 31, 4-(8-[3-fluoro-4-(hydroxymethyl)phenyl]-5-{[(3R)-1-methylpiperidin-3-yl]methoxy}imidazo[1,2-c]pyrimidin-7-yl)benzonitrile]",≥ 7.30
23,"CN1CCC[C@@H](COc2nc(-c3ccc(C#N)cc3)c(-c3ccc(CCN4CCOCC4)cc3)c3nccn23)C1 [Example 11, 4-{5-{[(3R)-1-methylpiperidin-3-yl]methoxy}-8-[4-(2-morpholin-4-ylethyl)phenyl]imidazo[1,2-c]pyrimidin-7-yl}benzonitrile]",6.30 to 7.30
24,"CN1CCC[C@@H](COc2nc(-c3ccc(C#N)cc3)c(-c3cnc4c(c3)CCCN4C)c3nccn23)C1 [Example 78, 4-[5-{[(3R)-1-methylpiperidin-3-yl]methoxy}-8-(8-methyl-5,6,7,8-tetrahydro-1,8-naphthyridin-3-yl)imidazo[1,2-c]pyrimidin-7-yl]benzonitrile]",≥ 7.30
25,"Cc1ncc(-c2c(-c3ccc(C#N)cc3)nc(OC[C@@H]3CCCN(C)C3)n3ccnc23)cc1F [Example 74, 4-(8-(5-fluoro-6-methylpyridin-3-yl)-5-{[(3R)-1-methylpiperidin-3-yl]methoxy}imidazo[1,2-c]pyrimidin-7-yl)benzonitrile]",6.30 to 7.30
26,"CN1CCC[C@@H](COc2nc(-c3ccc(C#N)cc3)c(-c3cnc4c(c3)oc(=O)n4C)c3nccn23)C1 [Example 61, 4-(8-(3-methyl-2-oxo-2,3-dihydro[1,3]oxazolo[4,5-b]pyridin-6-yl)-5-{[(3R)-1-methylpiperidin-3-yl]methoxy}imidazo[1,2-c]pyrimidin-7-yl)benzonitrile]",6.30 to 7.30
27,"CN(C)C1CCN(c2nc(-c3ccc(C#N)cc3)c(-c3ccc4c(c3)CC(O)C4)c3nccn23)CC1 (stereo not drawn) [Example 122, 4-[5-[4-(dimethylamino)piperidin-1-yl]-8-(2-hydroxy-2,3-dihydro-1H-inden-5-yl)imidazo[1,2-c]pyrimidin-7-yl]benzonitrile]",≥ 7.30
28,"Cn1ncc2cc(-c3c(-c4ccc(C#N)cc4)nc(OC[C@@H]4CCCN(CCO)C4)n4ccnc34)cnc21 [Example 34, 4-[5-{[(3R)-1-(2-hydroxyethyl)piperidin-3-yl]methoxy}-8-(1-methyl-1H-pyrazolo[3,4-b]pyridin-5-yl)imidazo[1,2-c]pyrimidin-7-yl]benzonitrile]",≥ 7.30
29,"CN1CCC[C@@H](COc2nc(-c3ccc(C#N)cc3)c(-c3ccc4c(cnn4C)c3)c3nccn23)C1 [Example 8, 4-(8-(1-methyl-1H-indazol-5-yl)-5-{[(3R)-1-methylpiperidin-3-yl]methoxy}imidazo[1,2-c]pyrimidin-7-yl)benzonitrile]",≥ 7.30
30,"Cn1c(=O)oc2cc(-c3c(-c4ccc(C#N)cc4)nc(OC[C@@H]4CCCN(CC(C)(C)O)C4)n4ccnc34)ccc21 [Example 135, 4-[5-{[(3R)-1-(2-hydroxy-2-methylpropyl)piperidin-3-yl]methoxy}-8-(3-methyl-2-oxo-2,3-dihydro-1,3-benzoxazol-6-yl)imidazo[1,2-c]pyrimidin-7-yl]benzonitrile]",6.30 to 7.30

# — patent US9944647B2 (Incyte Corporation, priority 2015, dated 2018)
